# Test results from patent US20170290814A1, “METHODS OF TREATMENT OF CHOLESTASIS AND FIBROSIS” (GENFIT, priority 2016, published 2017).
# How the values were obtained:
# [1] = tested on: TGFβ1-induced expression of α-SMA protein in NHLF; experiment: α-SMA ELISA in TGFβ1-activated normal human lung fibroblasts; format: cell-based; settings: TGFβ1 1 ng/ml, 48 h
# Experimental: Serum-deprived NHLF were preincubated for 1 hour with RM-5061 before the activation with the profibrogenic cytokine TGFβ1 (1 ng/ml). After 48 hours of incubation, the expression of α-SMA was measured by ELISA. The obtained values were transformed into percentage inhibition over TGFβ1 control. Data are presented as mean (quadruplicates)±standard error of the mean (SEM). Statistical analyses were performed by kruskal-Wallis test followed by Dunn's multiple comparison tests, using GraphPad Prism 5.02 software. [*: p<0.05; **: p<0.01; ***: p<0.001 (comparison versus TGFβ1 1 ng/mL group)]. The curve fitting and the calculation of half maximal inhibitory concentration (IC50) were performed with XLFit software 5.3.1.3.
# Cpd.5 was added to serum-deprived lung fibroblasts (NHLF) 1 hour before the activation with TGFβ1 (1 ng/ml). After 48 hours of incubation, the expression of α-SMA was measured by ELISA. The obtained values were transformed into percentage inhibition over TGFβ1 control. Data are presented as mean (triplicates)±standard deviation (SD). Statistical analyses were performed by one-way ANOVA followed by Bonferroni post-hoc tests, using Sigma Plot 11.0 software. [*: p<0.05; **: p<0.01; ***: p<0.001 (comparison versus TGFβ1 1 ng/mL group)].
# The Normal Human Lung Fibroblasts (NHLF) (Lonza) were cultured in Fibroblast Basal Medium (FBM) (Lonza cat #CC-3131) that was supplemented with FGM-2 SingleQuots™ Kit (Lonza cat #CC-3132). The complete medium contains 2% fetal bovine serum. For the activation experiments with TGFβ1, the NHLF were plated at a density of 5×10^3 cells per well in 96-well plates. The next day, cell-culture medium was removed, and cells were washed with PBS (Invitrogen cat #14190). NHLF were deprived for 24 hours in serum-free, insulin-free and rhFGF-B-free medium. […]
# (§1) The level of α-SMA was measured using a Sandwich ELISA. […]
# [2] = tested on: TGFβ1-induced expression of α-SMA protein in human cardiac fibroblasts (NHCF); experiment: α-SMA ELISA in TGFβ1-activated normal human cardiac fibroblasts; format: cell-based; settings: TGFβ1 3 ng/ml, 48 h
# Experimental: Cpd.5 was added to serum-deprived cardiac fibroblasts (NHCF) 1 hour before the activation with TGFβ1 (3 ng/ml). After 48 hours of incubation, the expression of α-SMA was measured by ELISA. The obtained values were transformed into percentage inhibition over TGFβ1 control. Data are presented as mean (triplicates)±standard deviation (SD). Statistical analyses were performed by one-way ANOVA followed by Bonferroni post-hoc tests, using Sigma Plot 11.0 software. [*: p<0.05; **: p<0.01; ***: p<0.001 (comparison versus TGFβ1 3 ng/mL group)].
# The Normal Human Cardiac Fibroblasts (ventricle) (NHCF-V) (Lonza) were isolated from normal, adult heart tissue. Cells were cultured in Fibroblast Basal Medium (FBM) (Lonza cat #CC-3131) that was supplemented with FGM™-3 BulletKit™ kit (Lonza cat #CC-4525). The complete medium contains 10% fetal bovine serum. For the activation experiments with TGFβ1, the NHCF-V were plated at a density of 6×10^3 cells per well in 96-well plates. The next day, cell-culture medium was removed, and cells were washed with PBS (Invitrogen cat #14190). NHCF were deprived for 24 hours in serum-free, insulin-free and rhFGF-B-free medium. […]
# as §1
smiles,measurement,setting,value
"CC(C)(C)[C@H](N)C(=O)Oc1ccccc1C(=O)Nc1ncc([N+](=O)[O-])s1 [RM-5061, (S)-2-(5-nitrothiazol-2-ylcarbamoyl)phenyl 2-amino-3,3-dimethylbutanoate]",effect on TGFβ1-induced α-SMA in NHLF,[1],inhibits
same,IC50 α-SMA in NHLF,[1]; compared with IC50 in human HSC,comparable IC50
"[2H]C([2H])([2H])C(=O)Oc1ccccc1C(=O)Nc1ncc([N+](=O)[O-])s1 [Cpd.5, 2-[(5-nitro-1,3-thiazol-2-yl)carbamoyl]phenyl (d3)ethanoate]",effect on TGFβ1-induced α-SMA in NHLF,[1],inhibits
same,effect on TGFβ1-induced α-SMA in human cardiac fibroblasts,[2],inhibits
